According to US20260049071A1, “PROTEIN TYROSINE KINASE INHIBITOR AND MEDICAL USE THEREOF” (BEYANG THERAPEUTICS CO., LTD., priority 2022, published 2026):

Tests used:
KDR (VEGFR2) = KDR (VEGFR2) (Homo sapiens (Human), UniProt P35968); test: Kinase inhibition, Mobility Shift Assay (VEGFR2); format: biochemical
Procedure: (§1) This assay directly monitored the ability of compounds to inhibit kinase phosphorylation by measuring non-phosphorylated and phosphorylated substrates in kinase reactions by using Mobility Shift Assays/IMAP™ analysis.
(§2) Add the kinase and DTT to 1× kinase buffer to form a 2.5× kinase solution; transfer 10 μL of 2.5× kinase solution to a 384-well reaction plate and add 1× kinase buffer to negative control wells. Incubate the plate for 10 min at room temperature; add FAM-labeled peptides, MgCl2, ATP and other reagents to 1× kinase buffer to form a 2.5× substrate solution; transfer 10 μL of the above 2.5× substrate solution to the 384-well reaction plate; incubate the plate at 28° C. for different times, and add 25 μL of stop solution to the 384-well reaction plate to stop the reaction. Read the conversion ratio data on CaliperEZ Reader II. Convert conversion rates into inhibition ratio data.
(§3) “Min” indicates the readout of the control well without the addition of kinase; and “Max” indicates the readout of the control well with the addition of DMSO. Fit IC50 values with XLFit excel add-in version 5.4.0.8.
(§4) X indicates the log value of compound concentration, and Y indicates the inhibition ratio (% inhibition).

EGFR = EGFR (Homo sapiens (Human), UniProt P00533); test: Kinase inhibition, Mobility Shift Assay (EGFR); format: biochemical
Procedure: as §1, §2, §3, §4

Chain of KDR (VEGFR2) (P35968 790-1356): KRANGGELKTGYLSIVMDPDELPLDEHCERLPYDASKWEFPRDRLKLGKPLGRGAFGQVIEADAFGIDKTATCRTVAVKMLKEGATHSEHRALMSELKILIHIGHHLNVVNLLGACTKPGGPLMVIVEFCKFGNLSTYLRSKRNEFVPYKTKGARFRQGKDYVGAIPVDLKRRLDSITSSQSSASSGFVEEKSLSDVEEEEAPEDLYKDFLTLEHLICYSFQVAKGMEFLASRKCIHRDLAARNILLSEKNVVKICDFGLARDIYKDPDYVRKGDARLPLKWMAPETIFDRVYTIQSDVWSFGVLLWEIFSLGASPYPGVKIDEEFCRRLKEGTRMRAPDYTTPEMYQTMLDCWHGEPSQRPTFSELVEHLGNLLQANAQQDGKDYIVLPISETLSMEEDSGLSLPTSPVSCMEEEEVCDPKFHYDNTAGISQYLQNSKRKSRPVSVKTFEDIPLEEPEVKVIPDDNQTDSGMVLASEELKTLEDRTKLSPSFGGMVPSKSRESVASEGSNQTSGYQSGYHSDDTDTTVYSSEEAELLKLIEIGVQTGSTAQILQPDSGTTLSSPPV
Chain of EGFR (P00533 25-1210): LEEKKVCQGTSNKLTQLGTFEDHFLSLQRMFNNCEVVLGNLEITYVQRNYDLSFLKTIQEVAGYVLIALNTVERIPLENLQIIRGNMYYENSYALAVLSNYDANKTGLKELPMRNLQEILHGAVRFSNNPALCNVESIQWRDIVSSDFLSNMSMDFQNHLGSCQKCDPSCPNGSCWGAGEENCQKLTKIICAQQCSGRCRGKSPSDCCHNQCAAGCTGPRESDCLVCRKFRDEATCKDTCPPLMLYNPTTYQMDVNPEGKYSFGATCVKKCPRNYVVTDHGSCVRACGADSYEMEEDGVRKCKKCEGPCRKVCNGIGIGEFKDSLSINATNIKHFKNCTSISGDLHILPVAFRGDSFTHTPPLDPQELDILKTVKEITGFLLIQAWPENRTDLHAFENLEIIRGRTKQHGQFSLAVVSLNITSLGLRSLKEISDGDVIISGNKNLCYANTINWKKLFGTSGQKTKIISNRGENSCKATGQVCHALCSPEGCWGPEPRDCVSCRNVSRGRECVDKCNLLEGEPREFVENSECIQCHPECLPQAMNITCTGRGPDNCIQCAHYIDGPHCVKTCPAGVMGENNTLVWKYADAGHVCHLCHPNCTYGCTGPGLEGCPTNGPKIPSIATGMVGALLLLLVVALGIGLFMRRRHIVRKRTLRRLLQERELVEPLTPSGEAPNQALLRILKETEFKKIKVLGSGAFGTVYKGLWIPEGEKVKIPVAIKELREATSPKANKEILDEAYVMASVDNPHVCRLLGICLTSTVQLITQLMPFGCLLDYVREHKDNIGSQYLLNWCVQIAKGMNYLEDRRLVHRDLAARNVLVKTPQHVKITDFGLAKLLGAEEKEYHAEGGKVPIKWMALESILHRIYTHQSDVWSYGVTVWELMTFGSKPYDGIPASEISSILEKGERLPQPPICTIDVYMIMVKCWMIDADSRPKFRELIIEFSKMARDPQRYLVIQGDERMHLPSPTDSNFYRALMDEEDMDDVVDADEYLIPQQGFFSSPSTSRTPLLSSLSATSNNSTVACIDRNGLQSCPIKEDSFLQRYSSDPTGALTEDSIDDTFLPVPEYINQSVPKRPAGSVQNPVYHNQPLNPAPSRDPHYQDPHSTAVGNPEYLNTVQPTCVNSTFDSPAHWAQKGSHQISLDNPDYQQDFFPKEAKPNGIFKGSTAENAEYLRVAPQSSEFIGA

Compound	IC50 (KDR (VEGFR2)) [nM]	IC50 (EGFR) [nM]
O=C(NC1CC1)c1cccc(F)c1Sc1ccc2c(/C=C/c3ccn(CCN4CCCC4)n3)n[nH]c2c1 [Compound I-69]	10 to 100	6000 to 60000
O=C(NC1CC1)c1ccccc1Oc1ccc2c(/C=C/c3ccc(CN4CCCC4)cn3)n[nH]c2c1 [Compound I-81, N-cyclopropyl-2-({3-[(E)-2-{5-[(pyrrolidin-1-yl)methyl]pyridin-2-yl}vinyl]-1H-indazol-6-yl}oxy)benzamide]	10 to 100	6000 to 60000
CCNC(=O)c1cccc(F)c1Sc1ccc2c(/C=C/c3cnn(CCCN4CCCC4)c3)n[nH]c2c1 [Compound I-102]	10 to 100	6000 to 60000
CCN(CC)CCc1ccc(/C=C/c2n[nH]c3cc(Sc4cc(F)ccc4C(=O)NC4CC4)ccc23)nc1 [Compound I-108, N-cyclopropyl-2-({3-[(E)-2-{5-[2-(diethylamino)ethyl]pyridin-2-yl}vinyl]-1H-indazol-6-yl}thio)-4-fluorobenzamide]	≤ 1	6000 to 60000
O=C(NC1CC1)c1cccc(F)c1Sc1ccc2c(/C=C/c3cc(OCCN4CCCC4)ccn3)n[nH]c2c1 [Compound I-112, N-cyclopropyl-3-fluoro-2-({3-[(E)-2-{4-[2-(pyrrolidin-1-yl)ethoxy]pyridin-2-yl}vinyl]-1H-indazol-6-yl}thio)benzamide]	10 to 100	6000 to 60000
O=C(NC1CC1)c1cccc(F)c1Sc1ccc2c(/C=C/c3cc(CCCN4CCCC4)ccn3)n[nH]c2c1 [Compound I-123]	10 to 100	> 60000
O=C(NC1CC1)c1cccc(F)c1Sc1ccc2c(/C=C/c3cccc(CCN4CCCC4)n3)n[nH]c2c1 [Compound I-128, N-cyclopropyl-3-fluoro-2-({3-[(E)-2-{6-[2-(pyrrolidin-1-yl)ethyl]pyridin-2-yl}vinyl]-1H-indazol-6-yl}thio)benzamide]	10 to 100	> 60000
CCNC(=O)c1cccc(F)c1Sc1ccc2c(/C=C/c3cccc(CCN4CCCC4)n3)n[nH]c2c1 [Compound I-129, N-ethyl-3-fluoro-2-({3-[(E)-2-{6-[2-(pyrrolidin-1-yl)ethyl]pyridin-2-yl}vinyl]-1H-indazol-6-yl}thio)benzamide]	10 to 100	> 60000
O=C(NC1CC1)c1ccccc1Sc1ccc2c(/C=C/c3cc(CCN4CCCC4)ccn3)n[nH]c2c1 [Compound I-133, N-cyclopropyl-2-({3-[(E)-2-{4-[2-(pyrrolidin-1-yl)ethyl]pyridin-2-yl}vinyl]-1H-indazol-6-yl}thio)benzamide]	1 to 10	> 60000
O=C(NC1CC1)c1cc(F)ccc1Sc1ccc2c(/C=C/c3cccc(CCN4CCCC4)n3)n[nH]c2c1 [Compound I-136, N-cyclopropyl-5-fluoro-2-({3-[(E)-2-{6-[2-(pyrrolidin-1-yl)ethyl]pyridin-2-yl}vinyl]-1H-indazol-6-yl}thio)benzamide]	1 to 10	> 60000
O=C(NC1CC1)c1ccccc1Sc1ccc2c(C#Cc3ccc(OCCN4CCCC4)cn3)n[nH]c2c1 [Compound I-139, N-cyclopropyl-2-{[3-(2-{5-[2-(pyrrolidin-1-yl)ethoxy]pyridin-2-yl}ethynyl)-1H-indazol-6-yl]thio}benzamide]	10 to 100	> 60000

Continued, values first:

IC50 (KDR (VEGFR2)) [nM]	IC50 (EGFR) [nM]	Compound
≤ 1	6000 to 60000	O=C(NC1CC1)c1cc(F)ccc1Sc1ccc2c(/C=C/c3cnn(CCCN4CCCC4)c3)n[nH]c2c1 [Compound I-46, N-cyclopropyl-5-fluoro-2-({3-[(E)-2-{1-[3-(pyrrolidin-1-yl)propyl]-1H-pyrazol-4-yl}vinyl]-1H-indazol-6-yl}thio)benzamide]
1 to 10	600 to 6000	O=C(NC1CC1)c1ccccc1Sc1ccc2c(/C=C/c3ccn(CCN4CCCC4)n3)n[nH]c2c1 [Compound I-60, N-cyclopropyl-2-({3-[(E)-2-{1-[2-(pyrrolidin-1-yl)ethyl]-1H-pyrazol-3-yl}vinyl]-1H-indazol-6-yl}thio)benzamide]
1 to 10	6000 to 60000	CNC(=O)c1ccccc1Sc1ccc2c(/C=C/c3ccc(CN4CCCC4)cn3)n[nH]c2c1 [Compound I-74, N-methyl-2-({3-[(E)-2-{5-[(pyrrolidin-1-yl)methyl]pyridin-2-yl}vinyl]-1H-indazol-6-yl}thio)benzamide]
1 to 10	6000 to 60000	CCNC(=O)c1cccc(F)c1Sc1ccc2c(/C=C/c3ccc(CN4CCCC4)cn3)n[nH]c2c1 [Compound I-75, N-ethyl-3-fluoro-2-({3-[(E)-2-{5-[(pyrrolidin-1-yl)methyl]pyridin-2-yl}vinyl]-1H-indazol-6-yl}thio)benzamide]
> 100	> 60000	CCNC(=O)c1ccc(Sc2ccc3c(/C=C/c4ccc(CN(CC)CC)cn4)n[nH]c3c2)cc1F [Compound I-87, 4-({3-[(E)-2-{5-[(diethylamino)methyl]pyridin-2-yl}vinyl]-1H-indazol-6-yl}thio)-N-ethyl-2-fluorobenzamide]
1 to 10	6000 to 60000	CCN(CC)Cc1ccc(/C=C/c2n[nH]c3cc(Sc4cc(F)ccc4C(=O)NC)ccc23)nc1 [Compound I-92, 2-({3-[(E)-2-{5-[(diethylamino)methyl]pyridin-2-yl}vinyl]-1H-indazol-6-yl}thio)-4-fluoro-N-methylbenzamide]
1 to 10	6000 to 60000	CNC(=O)c1cc(F)ccc1Sc1ccc2c(/C=C/c3ccc(CN4CCCC4)cn3)n[nH]c2c1 [Compound I-95, 5-fluoro-N-methyl-2-({3-[(E)-2-{5-[(pyrrolidin-1-yl)methyl]pyridin-2-yl}vinyl]-1H-indazol-6-yl}thio)benzamide]
≤ 1	6000 to 60000	CCNC(=O)c1ccc(F)cc1Sc1ccc2c(/C=C/c3cnn(CCCN4CCCC4)c3)n[nH]c2c1 [Compound I-103, N-ethyl-4-fluoro-2-({3-[(E)-2-{1-[3-(pyrrolidin-1-yl)propyl]-1H-pyrazol-4-yl}vinyl]-1H-indazol-6-yl}thio)benzamide]
1 to 10	6000 to 60000	CCNC(=O)c1cccc(F)c1Sc1ccc2c(/C=C/c3ccc(CN(CC)CC)cn3)n[nH]c2c1 [Compound I-111, 2-({3-[(E)-2-{5-[(diethylamino)methyl]pyridin-2-yl}vinyl]-1H-indazol-6-yl}thio)-N-ethyl-3-fluorobenzamide]
> 100	> 60000	CCNC(=O)c1cccc(F)c1Sc1ccc2c(/C=C/c3cc(CN4CCCC4)ccn3)n[nH]c2c1 [Compound I-114, N-ethyl-3-fluoro-2-({3-[(E)-2-{4-[(pyrrolidin-1-yl)methyl]pyridin-2-yl}vinyl]-1H-indazol-6-yl}thio)benzamide]
1 to 10	> 60000	CCNC(=O)c1cc(F)ccc1Sc1ccc2c(/C=C/c3cc(CCCN4CCCC4)ccn3)n[nH]c2c1 [Compound I-122, N-ethyl-5-fluoro-2-({3-[(E)-2-{4-[3-(pyrrolidin-1-yl)propyl]pyridin-2-yl}vinyl]-1H-indazol-6-yl}thio)benzamide]
10 to 100	6000 to 60000	O=C(NC1CC1)c1cccc(F)c1Sc1ccc2c(/C=C/c3cccc(CCCN4CCCC4)n3)n[nH]c2c1 [Compound I-124]
1 to 10	6000 to 60000	O=C(NC1CC1)c1cc(F)ccc1Sc1ccc2c(/C=C/c3cccc(CCCN4CCCC4)n3)n[nH]c2c1 [Compound I-132, N-cyclopropyl-5-fluoro-2-({3-[(E)-2-{6-[3-(pyrrolidin-1-yl)propyl]pyridin-2-yl}vinyl]-1H-indazol-6-yl}thio)benzamide]
10 to 100	> 60000	O=C(NC1CC1)c1cc(F)ccc1Sc1ccc2c(/C=C/c3cc(CCN4CCCC4)ccn3)n[nH]c2c1 [Compound I-135, N-cyclopropyl-5-fluoro-2-({3-[(E)-2-{4-[2-(pyrrolidin-1-yl)ethyl]pyridin-2-yl}vinyl]-1H-indazol-6-yl}thio)benzamide]
1 to 10	> 60000	O=C(NC1CC1)c1cc(F)ccc1Sc1ccc2c(/C=C/c3cc(CN4CCCC4)ccn3)n[nH]c2c1 [Compound I-137, N-cyclopropyl-5-fluoro-2-({3-[(E)-2-{4-[(pyrrolidin-1-yl)methyl]pyridin-2-yl}vinyl]-1H-indazol-6-yl}thio)benzamide]
1 to 10	> 60000	O=C(NC1CC1)c1cc(F)ccc1Sc1ccc2c(/C=C/c3cccc(CN4CCCC4)n3)n[nH]c2c1 [Compound I-138, N-cyclopropyl-5-fluoro-2-({3-[(E)-2-{6-[(pyrrolidin-1-yl)methyl]pyridin-2-yl}vinyl]-1H-indazol-6-yl}thio)benzamide]
